Key:
Type in all cases: cell-based
neocortex = test: action potential measurements in mouse brain slice, neocortex; details: for amount of current required to trigger an action potential / threshold to trigger an action potential: neocortex
Text: (§1) A mouse brain slice was used to study the effects of Menthol, Linalool and Icilin. The amygdaloid complex is located within the medial temporal lobe in neocortex and amygdala. The lateral and basolateral nuclei of the amygdaloid complex receive sensory information from cortical and thalamic structures, process the information, and then transmit the information, either directly or through the basal nucleus, to the central nucleus. For experimental analysis of neural activity, synaptic responses from the basolateral complex can be evoked electrically using electrodes, and the action potentials can be measured.

[1] = test system: Lateral Amygdala glutamatergic neuron (in a mouse brain slice); test: whole cell, current clamp recordings, square pulse of 2.5 s at high depolarization; details: square pulse of 2.5 s at high depolarization of membrane potential (approximately -30 mV); relative to control; FIG. 2
Text: as §1
A square pulse of 2.5 s was applied at high depolarization of membrane potential (approximately −30 mV).

[2] = test system: Lateral Amygdala glutamatergic neuron (in a mouse brain slice); test: whole cell, current clamp recordings of spontaneous bursts with increasing concentration of gabazine
Text: as §1

O=C1NC(c2cccc([N+](=O)[O-])c2)=CCN1c1ccccc1O [Icilin]
action potentials at higher stimulation levels (neocortex): abort action potentials at higher stimulation levels | amount of current required to trigger an action potential (neocortex): increase the amount of current required to trigger an action potential | threshold to trigger an action potential (neocortex): increase the threshold to trigger an action potential | inactivation of the sodium fast channels / further neural firing [1]: inactivation of the sodium fast channels happens sooner relative to control

C=CC(C)(O)CCC=C(C)C (centres unmarked) [Linalool]
action potentials at higher stimulation levels (neocortex): abort action potentials at higher stimulation levels | amount of current required to trigger an action potential (neocortex): increase the amount of current required to trigger an action potential | threshold to trigger an action potential (neocortex): increase the threshold to trigger an action potential | inactivation of the sodium fast channels / further neural firing [1]: inactivation of the sodium fast channels happens sooner relative to control

CC1CCC(C(C)C)C(O)C1 (centres unmarked) [Menthol]
action potentials at higher stimulation levels (neocortex): abort action potentials at higher stimulation levels | amount of current required to trigger an action potential (neocortex): increase the amount of current required to trigger an action potential | threshold to trigger an action potential (neocortex): increase the threshold to trigger an action potential | inactivation of the sodium fast channels / further neural firing [1]: inactivation of the sodium fast channels happens sooner relative to control | spontaneous action potential bursts ([2]; Menthol 250 μM applied extracellularly 10 minutes previous to and during increasing concentrations of gabazine, FIG. 5 compared to FIG. 3): complete absence or a strongly decreased presence of spontaneous bursts

COc1ccc(-c2ccc(=N)n(CCCC(=O)O)n2)cc1 [gabazine]
spontaneous action potential bursts ([2]; increasing concentrations of gabazine alone, applied extracellularly, recordings of 5 minutes each, 10 minute washout, FIG. 3): neurons spontaneously present action potential bursts

— US11241433B2, “Treatment or prevention of autism disorders using menthol, linalool and/or icilin” (Société des Produits Nestlé S.A., priority 2013, dated 2022)
